Data reported in the supplement of paper PMC10307832.

Key:
Assay in all cases: relative viability (nuclei count vs DMSO), 5 days (fraction); higher = more cells survive
XMD14-99 + Lapatinib = compound: CN1CCN(CC1)C2=CC(=C(C=C2)NC3=NC(=C(S3)C(=O)C4=C(C=CC=C4Cl)Cl)N)OC [XMD14-99] + CS(=O)(=O)CCNCc1ccc(-c2ccc3ncnc(Nc4ccc(OCc5cccc(F)c5)c(Cl)c4)c3c2)o1 [Lapatinib] (partner 2 µM)
Method in brief: (§1)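 Lung cancer cell lines in 1536-well plates were dosed by pin tool the day after seeding, either with one drug alone or with a fixed anchor-drug dose plus five library-drug doses (not always all listed) in √10 steps. After 5 days, cells were fixed and their nuclei stained in one step (final 0.05% Triton X-100, 1% formaldehyde, 1 ug/ml Hoechst), then counted on 4× images. Relative viability is the nuclei count in treated wells divided by that in vehicle wells. Values are medians of duplicate plates.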

AZD1208 + Decitabine = compound: N[C@@H]1CCCN(c2c(/C=C3\SC(=O)NC3=O)cccc2-c2ccccc2)C1 [AZD1208] + Nc1ncn([C@H]2C[C@H](O)[C@@H](CO)O2)c(=O)n1 [Decitabine] (partner 2 µM)
Method in brief: as §1

XMD14-99 + Olaparib = compound: CN1CCN(CC1)C2=CC(=C(C=C2)NC3=NC(=C(S3)C(=O)C4=C(C=CC=C4Cl)Cl)N)OC [XMD14-99] + O=C(c1cc(Cc2n[nH]c(=O)c3ccccc23)ccc1F)N1CCN(C(=O)C2CC2)CC1 [Olaparib] (partner 8 µM)
Method in brief: as §1

AZD1208 + Tozasertib = compound: N[C@@H]1CCCN(c2c(/C=C3\SC(=O)NC3=O)cccc2-c2ccccc2)C1 [AZD1208] + Cc1cc(Nc2cc(N3CCN(C)CC3)nc(Sc3ccc(NC(=O)C4CC4)cc3)n2)n[nH]1 [Tozasertib] (partner 0.1 µM)
Method in brief: as §1

| Cell Line | relative viability (XMD14-99 + Lapatinib; first compound 0.08 µM) | relative viability (XMD14-99 + Lapatinib; first compound 0.8 µM) | relative viability (XMD14-99 + Lapatinib; first compound 2.53 µM) | relative viability (XMD14-99 + Lapatinib; first compound 8 µM) | relative viability (AZD1208 + Decitabine; first compound 0.08 µM) | relative viability (AZD1208 + Decitabine; first compound 0.253 µM) | relative viability (AZD1208 + Decitabine; first compound 0.8 µM) | relative viability (AZD1208 + Decitabine; first compound 2.53 µM) | relative viability (AZD1208 + Decitabine; first compound 8 µM) | relative viability (XMD14-99 + Olaparib; first compound 0.08 µM) | relative viability (XMD14-99 + Olaparib; first compound 0.8 µM) | relative viability (XMD14-99 + Olaparib; first compound 2.53 µM) | relative viability (XMD14-99 + Olaparib; first compound 8 µM) | relative viability (AZD1208 + Tozasertib; first compound 0.08 µM) | relative viability (AZD1208 + Tozasertib; first compound 0.253 µM) | relative viability (AZD1208 + Tozasertib; first compound 0.8 µM) | relative viability (AZD1208 + Tozasertib; first compound 2.53 µM) | relative viability (AZD1208 + Tozasertib; first compound 8 µM) |
| --- | --- | --- | --- | --- | --- | --- | --- | --- | --- | --- | --- | --- | --- | --- | --- | --- | --- | --- |
| NCI-H2347 | 0.957 | 0.907 | 0.793 | 0.659 | 0.599 | 0.631 | 0.564 | 0.671 | 0.645 | 0.557 | 0.568 | 0.601 | 0.446 | 0.364 | 0.523 | 0.524 | 0.687 | 0.502 |
| NCI-H2405 | 1.1 | 1.16 | 0.971 | 0.778 | 0.683 | 0.752 | 0.695 | 0.719 | 0.653 | 0.839 | 0.918 | 0.758 | 0.723 | 0.726 | 0.721 | 0.693 | 0.71 | 0.635 |
| NCI-H3122 | 0.982 | 0.965 | 0.879 | 0.746 | 0.457 | 0.362 | 0.351 | 0.431 | 0.315 | 0.671 | 0.682 | 0.62 | 0.441 | 0.402 | 0.315 | 0.353 | 0.348 | 0.369 |
| PC-3 [JPC-3] | 0.491 | 0.443 | 0.41 | 0.387 | 0.81 | 0.932 | 0.751 | 0.887 | 0.81 | 1.09 | 1.1 | 1.16 | 0.733 | 0.9 | 0.989 | 0.906 | 0.886 | 0.78 |
